Experimental findings from patent US7932394B2, “Aryloxy-substituted benzimidazole derivatives” (MSD K.K., priority 2004, dated 2011) are described below.

Broadly, the EC50 is the midpoint of the concentration-response curve. The term Emax denotes the size of the effect at its maximum, as opposed to the concentration needed.

The target of the assay is T1, recombinant human liver GK (Homo sapiens, UniProt P35557).
T1 construct: made in house; host or cells: E. coli
T1 sequence (P35557 1-466 isoform P35557-2): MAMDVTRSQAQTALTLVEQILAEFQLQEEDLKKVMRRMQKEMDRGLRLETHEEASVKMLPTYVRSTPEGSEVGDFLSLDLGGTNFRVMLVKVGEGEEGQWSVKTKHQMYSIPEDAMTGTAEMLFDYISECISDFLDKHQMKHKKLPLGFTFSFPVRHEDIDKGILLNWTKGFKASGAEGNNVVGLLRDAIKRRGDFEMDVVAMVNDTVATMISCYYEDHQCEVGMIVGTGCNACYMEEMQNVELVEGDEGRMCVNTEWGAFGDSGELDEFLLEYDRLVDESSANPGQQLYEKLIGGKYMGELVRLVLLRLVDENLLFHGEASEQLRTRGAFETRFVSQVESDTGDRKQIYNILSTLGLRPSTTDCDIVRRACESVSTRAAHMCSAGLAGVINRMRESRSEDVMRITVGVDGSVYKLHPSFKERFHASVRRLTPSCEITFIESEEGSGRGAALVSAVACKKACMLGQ
Put plainly: GK-activating potency: glucokinase activity via Thio-NADH level (G6PDH reporter enzyme). The conditions noted are these: FLAG-GK, 30° C., final glucose concentration 2.5 mM; for Emax: OD level of DMSO control set as 100%. Type of assay: biochemical. The text has this: The excellent glucokinase-activating effect of the compounds of formula (I) may be determined by a method described in references (for example, Diabetes, Vol. 45, pp. 1671-1677, 1996), or in accordance with it.
The glucokinase activity may be determined not by directly measuring glucose-6-phosphate but by measuring the level of Thio-NADH, which is produced when a reporter enzyme, glucose-6-phosphate dehydrogenase produces phosphogluconolactone from glucose-6-phosphate, and based on the level, the degree of glucokinase activity of the compound tested may be determined.
In this assay, used was a recombinant human liver GK, which was expressed by E. coli as a FLAG fusion protein therein and was purified by ANTIFLAG M2 AFFINITY GEL (Sigma).
Using a flat-bottomed 96-well plate, the assay was carried out at 30° C. 69 μl of an assay buffer (25 mM Hepes Buffer/pH=7.2, 2 mM MgCl2, 1 mM ATP, 0.5 mM TNAD, 1 mM dithiothreitol) was put into the plate, and 1 μl of a DMSO solution of the compound or DMSO alone as a control was added thereto. Next, 20 μl of an enzyme mixture (FLAG-GK, 20 U/ml G6PDH) cooled in ice was added to it, and 10 μl of a substrate, 25 mM glucose was added to it, and the reaction was initiated (final glucose concentration=2.5 mM).
After the start of the reaction, the increase in the absorbance at 405 nm was measured for 12 minutes at intervals of 30 seconds, and the increase for the first 5 minutes was used for evaluating the compound tested. FLAG-GK was added so that the absorbance increase after 5 minutes in the presence of 1% DMSO could be from 0.04 to 0.06.
The OD level of the DMSO control was set as 100%; and the OD level of the test compound at different concentrations was determined. From the OD level at each concentration, Emax (%) and EC50 (μM) were computed and used as the index of the GK-activating potency of the compound.

SMILES strings stand for the structures.

As for `CS(=O)(=O)c1ccc(Oc2cc3nc(-c4ccccn4)[nH]c3cc2CN2C(=O)CCC2=O)cc1` [Example 1, 1-{[5-[4-(Methylsulfonyl)phenoxy]-2-(2-pyridinyl)-1H-benzimidazol-6-yl]methyl}pyrrolidine-2,5-dione], the EC50 was 120 nM.
Turning to `CCS(=O)(=O)c1ccc(Oc2cc3nc(-c4ccccn4)[nH]c3cc2CNS(C)(=O)=O)cc1` [Example 31, N-{[5-[4-(ethylsulfonyl)phenoxy]-2-(2-pyridinyl)-1H-benzimidazol-6-yl]methyl}methanesulfonamide], the concentration giving a half-maximal response (EC50) came to 490 nM and the Emax came to 982%.
On the same counts, the results for `CCS(=O)(=O)c1ccc(Oc2cc3nc(-c4ccccn4)[nH]c3cc2Cc2ccc(F)cc2)cc1` [Example 65, 5-[4-(Ethylsulfonyl)phenoxy]-6-(4-fluorobenzyl)-2-(2-pyridinyl)-1H-benzimidazole] are 360 nM and 805%.
